In one assay the target is TGFβR2 (Homo sapiens, UniProt P37173). Briefly: Biochemical TGFβR2 assay (LanthaScreen Europium Kinase Binding Assay). To be noted: geometric mean; tracer displacement, five concentrations 1.0-0.0039 μM in duplicate; read-out: TGFBR2 GMean: IC50 (μM) (Biochemical Assay). The protocol: The IC50 of certain compounds in this disclosure against TGFβR2 was conducted under contract at Thermo Fisher Scientific, Life Sciences Solutions as part of their SelectScreen™ profiling service. The TGFβR2 assay used the LanthaScreen® Europium Kinase Binding Assay. Binding of an Alexa Fluor® conjugate Tracer 199 (100 nM) to TGFβR2 (5 nM) was detected by addition of a Eu-labeled anti-tag antibody (5 nM) in Kinase Buffer A (50 mM HEPES pH 7.5, 0.01% BRIJ-35, 10 mM MgCl2, 1 mM EGTA) and 1% final DMSO. […] The percent inhibition was calculated from the emission ratio of Alexa Fluor® and Europium as documented by Thermo Fisher (www.thermofisher.com/kinaseprofiling). The IC50 of certain compounds in this disclosure was determined by testing a dilution series of the compound in duplicate at five concentrations (1.0, 0.25, 0.062, 0.015 and 0.0039 μM) by fitting the inhibition data with a sigmoidal curve fit model.
Table II provides data indicating TGFBR2 biochemical inhibitory activities for exemplary compounds as described herein.
Background: TR-FRET usually uses a lanthanide donor and a delayed reading to cut background.

The target in the next assay is T1, FLT3 D835Y (Homo sapiens, UniProt P36888, D835Y).
T1 sequence (P36888 27-993 D835Y): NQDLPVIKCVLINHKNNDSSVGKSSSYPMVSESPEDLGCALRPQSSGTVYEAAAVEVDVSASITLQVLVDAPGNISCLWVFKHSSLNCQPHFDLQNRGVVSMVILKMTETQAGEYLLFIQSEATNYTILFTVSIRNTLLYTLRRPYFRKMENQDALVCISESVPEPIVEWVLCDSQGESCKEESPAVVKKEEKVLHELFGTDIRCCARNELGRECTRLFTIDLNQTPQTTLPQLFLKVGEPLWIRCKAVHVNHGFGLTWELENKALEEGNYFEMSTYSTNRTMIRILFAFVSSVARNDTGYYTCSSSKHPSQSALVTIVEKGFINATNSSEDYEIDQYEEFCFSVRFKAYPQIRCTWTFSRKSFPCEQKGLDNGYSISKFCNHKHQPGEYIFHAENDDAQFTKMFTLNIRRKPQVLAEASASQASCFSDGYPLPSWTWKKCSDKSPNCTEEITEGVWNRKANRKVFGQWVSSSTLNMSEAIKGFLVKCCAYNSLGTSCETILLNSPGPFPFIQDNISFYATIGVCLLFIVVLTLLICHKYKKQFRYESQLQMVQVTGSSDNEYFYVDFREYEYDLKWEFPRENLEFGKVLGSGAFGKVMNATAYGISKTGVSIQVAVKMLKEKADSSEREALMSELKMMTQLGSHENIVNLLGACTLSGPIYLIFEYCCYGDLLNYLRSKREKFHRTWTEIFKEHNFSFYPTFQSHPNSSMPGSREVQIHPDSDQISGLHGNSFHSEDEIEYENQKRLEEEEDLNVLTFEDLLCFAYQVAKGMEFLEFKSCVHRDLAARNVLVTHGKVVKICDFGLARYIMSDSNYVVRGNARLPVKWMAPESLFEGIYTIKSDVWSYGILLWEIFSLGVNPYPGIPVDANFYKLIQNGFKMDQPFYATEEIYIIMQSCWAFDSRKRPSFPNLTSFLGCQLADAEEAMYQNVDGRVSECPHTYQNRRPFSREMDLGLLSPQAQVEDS
Briefly: Biochemical FLT3 D835Y assay. The note with it: geometric mean; assay as in US2017/0267660; read-out: FLT3 D835Y GMean: IC50 (μM) (Biochemical Assay). The method, then: FLT3 D835Y assays were conducted on certain compounds of this disclosure as described in U.S. Patent Publication No. US2017/0267660.
Table II provides data indicating FLT3 D835Y biochemical inhibitory activities for exemplary compounds as described herein.

Assay [1] concerns quizartinib resistance-causing mutants of FLT3-ITD. The note with it: all identified quizartinib resistance-causing mutants and other mutant isoforms (Smith et al.); cited from earlier work.

Chain of TGFβR2 (P37173 23-567): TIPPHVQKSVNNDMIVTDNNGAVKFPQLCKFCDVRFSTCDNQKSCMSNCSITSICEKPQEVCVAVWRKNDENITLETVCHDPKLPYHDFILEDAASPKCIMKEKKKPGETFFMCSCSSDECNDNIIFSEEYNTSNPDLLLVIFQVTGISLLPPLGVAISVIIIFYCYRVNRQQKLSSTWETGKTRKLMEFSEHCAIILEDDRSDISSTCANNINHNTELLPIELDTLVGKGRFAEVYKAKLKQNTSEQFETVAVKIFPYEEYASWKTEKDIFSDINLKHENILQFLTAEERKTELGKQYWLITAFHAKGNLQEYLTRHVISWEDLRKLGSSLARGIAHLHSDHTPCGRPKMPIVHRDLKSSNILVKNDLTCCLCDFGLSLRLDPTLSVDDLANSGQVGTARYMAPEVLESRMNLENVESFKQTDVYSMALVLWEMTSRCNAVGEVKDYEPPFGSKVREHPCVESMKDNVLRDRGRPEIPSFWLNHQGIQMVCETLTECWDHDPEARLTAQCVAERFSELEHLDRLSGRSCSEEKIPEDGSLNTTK

Usually IC50 stands for the concentration at which inhibition is half-maximal. Regarding `CC(C)(O)CNC(=O)c1cccc(-c2cnc3[nH]c(-c4cnn(C(F)F)c4)cc3c2)n1` [P-011, 6-(2-(1-(difluoromethyl)-1H-pyrazol-4-yl)-1H-pyrrolo[2,3-b]pyridin-5-yl)-N-(2-hydroxy-2-methylpropyl)picolinamide], the half-inhibitory concentration (IC50) on TGFβR2 and at FLT3 D835Y was 0.0001 to 10 µM each time.
With `N#CC1(CNC(=O)c2cccc(-c3cnc4[nH]c(-c5cnn(C(F)F)c5)cc4c3)n2)CC1` [P-008, N-((1-cyanocyclopropyl)methyl)-6-(2-(1-(difluoromethyl)-1H-pyrazol-4-yl)-1H-pyrrolo[2,3-b]pyridin-5-yl)picolinamide], the IC50 on TGFβR2 and at FLT3 D835Y was 0.0001 to 10 µM in each case.
Regarding `O=C(NCC1(O)CC1)c1cccc(-c2cnc3[nH]c(-c4cnn(C(F)F)c4)cc3c2)n1` [P-012, 6-(2-(1-(difluoromethyl)-1H-pyrazol-4-yl)-1H-pyrrolo[2,3-b]pyridin-5-yl)-N-((1-hydroxycyclopropyl)methyl)picolinamide], the concentration for half-maximal inhibition (IC50) on TGFβR2 and at FLT3 D835Y was 0.0001 to 10 µM each time.
Regarding `CC(C)(C#N)NC(=O)c1cncc(-c2cnc3[nH]c(-c4cnn(C(F)F)c4)cc3c2)n1` [P-021, N-(2-cyanopropan-2-yl)-6-(2-(1-(difluoromethyl)-1H-pyrazol-4-yl)-1H-pyrrolo[2,3-b]pyridin-5-yl)pyrazine-2-carboxamide], the concentration for half-maximal inhibition (IC50) at TGFβR2 and on FLT3 D835Y was 0.0001 to 10 µM in each case.
On to `CN1CC(NC(=O)c2cccc(-c3cnc4[nH]c(-c5cnn(C(F)F)c5)cc4c3)n2)C1` [P-015, 6-(2-(1-(difluoromethyl)-1H-pyrazol-4-yl)-1H-pyrrolo[2,3-b]pyridin-5-yl)-N-(1-methylazetidin-3-yl)picolinamide], for which the IC50 at TGFβR2 and on FLT3 D835Y was 0.0001 to 10 µM throughout.
Regarding `O=C(NC1COC1)c1cccc(-c2cnc3[nH]c(-c4cnn(C(F)F)c4)cc3c2)n1` [P-014, 6-(2-(1-(difluoromethyl)-1H-pyrazol-4-yl)-1H-pyrrolo[2,3-b]pyridin-5-yl)-N-(oxetan-3-yl)picolinamide], the IC50 on TGFβR2 and at FLT3 D835Y was 0.0001 to 10 µM in each case.
Regarding `CC(C)(C#N)NC(=O)c1cccc(-c2cnc3[nH]c(-c4cnn(CC#N)c4)cc3c2)n1` [P-001, 6-(2-(1-(cyanomethyl)-1H-pyrazol-4-yl)-1H-pyrrolo[2,3-b]pyridin-5-yl)-N-(2-cyanopropan-2-yl)picolinamide], the IC50 at TGFβR2 and on FLT3 D835Y was 0.0001 to 10 µM each time.
Take `CC(C)(C#N)NC(=O)c1cccc(-c2cnc3[nH]c(-c4cnn(C(F)F)c4)c(F)c3c2)n1` [P-004, N-(1-cyano-1-methyl-ethyl)-6-[2-[1-(difluoromethyl)pyrazol-4-yl]-3-fluoro-1H-pyrrolo[2,3-b]pyridin-5-yl]pyridine-2-carboxamide]: the IC50 on TGFβR2 and at FLT3 D835Y was 0.0001 to 10 µM throughout.
`O=C(Nc1ccn[nH]1)c1cccc(-c2cnc3[nH]c(-c4cnn(C(F)F)c4)cc3c2)n1` [P-018, 6-(2-(1-(difluoromethyl)-1H-pyrazol-4-yl)-1H-pyrrolo[2,3-b]pyridin-5-yl)-N-(1H-pyrazol-5-yl)picolinamide]: the IC50 at TGFβR2 and on FLT3 D835Y was 0.0001 to 10 µM throughout.
In the case of `O=C(Nc1ncc[nH]1)c1cccc(-c2cnc3[nH]c(-c4cnn(C(F)F)c4)cc3c2)n1` [P-016, 6-(2-(1-(difluoromethyl)-1H-pyrazol-4-yl)-1H-pyrrolo[2,3-b]pyridin-5-yl)-N-(1H-imidazol-2-yl)picolinamide], the concentration for half-maximal inhibition (IC50) at TGFβR2 and at FLT3 D835Y was 0.0001 to 10 µM in each case.
For `O=C(NC1CS(=O)(=O)C1)c1cccc(-c2cnc3[nH]c(-c4cnn(C(F)F)c4)cc3c2)n1` [P-010, 6-(2-(1-(difluoromethyl)-1H-pyrazol-4-yl)-1H-pyrrolo[2,3-b]pyridin-5-yl)-N-(1,1-dioxidothietan-3-yl)picolinamide], the IC50 at TGFβR2 and on FLT3 D835Y was 0.0001 to 10 µM each time.
Regarding `N#CC1(NC(=O)c2cccc(-c3cnc4[nH]c(-c5cnn(C(F)F)c5)cc4c3)n2)CC1` [P-006, N-(1-cyanocyclopropyl)-6-(2-(1-(difluoromethyl)-1H-pyrazol-4-yl)-1H-pyrrolo[2,3-b]pyridin-5-yl)picolinamide], the IC50 on TGFβR2 and on FLT3 D835Y was 0.0001 to 10 µM each time.
Regarding `CC(C)(C#N)NC(=O)c1cccc(-c2cnc3[nH]c(-c4c(F)nn(C(F)F)c4F)c(F)c3c2)n1` [P-003, N-(1-cyano-1-methyl-ethyl)-6-[2-[1-(difluoromethyl)-3,5-difluoro-pyrazol-4-yl]-3-fluoro-1H-pyrrolo[2,3-b]pyridin-5-yl]pyridine-2-carboxamide], the half-maximal inhibitory concentration (IC50) on TGFβR2 and on FLT3 D835Y was 0.0001 to 10 µM throughout.
In the case of `CC(C)(C#N)NC(=O)c1cc(F)cc(-c2cnc3[nH]c(-c4cnn(C(F)F)c4)cc3c2)n1` [P-024, N-(2-cyanopropan-2-yl)-6-(2-(1-(difluoromethyl)-1H-pyrazol-4-yl)-1H-pyrrolo[2,3-b]pyridin-5-yl)-4-fluoropicolinamide], the IC50 on TGFβR2 and at FLT3 D835Y was 0.0001 to 10 µM throughout.
Take `CC(C)(C#N)NC(=O)c1cccc(-c2cnc3[nH]c(-c4cnn(C(F)F)c4)c(Br)c3c2)n1` [P-005, 6-[3-bromo-2-[1-(difluoromethyl)pyrazol-4-yl]-1H-pyrrolo[2,3-b]pyridin-5-yl]-N-(1-cyano-1-methyl-ethyl)pyridine-2-carboxamide]: the IC50 at TGFβR2 and at FLT3 D835Y was 0.0001 to 10 µM in each case.
For the molecule `O=C(NCC1(O)CCC1)c1cccc(-c2cnc3[nH]c(-c4cnn(C(F)F)c4)cc3c2)n1` [P-013, 6-(2-(1-(difluoromethyl)-1H-pyrazol-4-yl)-1H-pyrrolo[2,3-b]pyridin-5-yl)-N-((1-hydroxycyclobutyl)methyl)picolinamide], the half-inhibitory concentration (IC50) on TGFβR2 and on FLT3 D835Y was 0.0001 to 10 µM in each case.
Turning to `O=C(Nc1nnc[nH]1)c1cccc(-c2cnc3[nH]c(-c4cnn(C(F)F)c4)cc3c2)n1` [P-019, 6-(2-(1-(difluoromethyl)-1H-pyrazol-4-yl)-1H-pyrrolo[2,3-b]pyridin-5-yl)-N-(4H-1,2,4-triazol-3-yl)picolinamide], the 50% inhibitory concentration (IC50) on TGFβR2 and at FLT3 D835Y was 0.0001 to 10 µM each time.
On to `O=C(Nc1cnc[nH]1)c1cccc(-c2cnc3[nH]c(-c4cnn(C(F)F)c4)cc3c2)n1` [P-017, 6-(2-(1-(difluoromethyl)-1H-pyrazol-4-yl)-1H-pyrrolo[2,3-b]pyridin-5-yl)-N-(1H-imidazol-5-yl)picolinamide], for which the concentration for half-maximal inhibition (IC50) on TGFβR2 and at FLT3 D835Y was 0.0001 to 10 µM throughout.
In the case of `N#CC1(NC(=O)c2cccc(-c3cnc4[nH]c(-c5cnn(C(F)F)c5)cc4c3)n2)CCC1` [P-007, N-(1-cyanocyclobutyl)-6-(2-(1-(difluoromethyl)-1H-pyrazol-4-yl)-1H-pyrrolo[2,3-b]pyridin-5-yl)picolinamide], the half-maximal inhibitory concentration (IC50) on TGFβR2 and on FLT3 D835Y was 0.0001 to 10 µM each time.
With `O=C(NC1CC(O)C1)c1cccc(-c2cnc3[nH]c(-c4cnn(C(F)F)c4)cc3c2)n1` (centres unmarked) [P-009, 6-(2-(1-(difluoromethyl)-1H-pyrazol-4-yl)-1H-pyrrolo[2,3-b]pyridin-5-yl)-N-(3-hydroxycyclobutyl)picolinamide], the IC50 at TGFβR2 and at FLT3 D835Y was 0.0001 to 10 µM in each case.
In the case of `CNC(=O)c1cc(Oc2ccc(NC(=O)Nc3ccc(Cl)c(C(F)(F)F)c3)cc2)ccn1` [sorafenib], in assay [1], the “activity against quizartinib resistance-causing mutants” value is “ineffective”.
